Data set [1] relates to SMN2 mRNA. As to the kind of experiment: Gene panel canonical junction qPCR assay, SMN2 CJ mRNA decrease. The conditions noted are these: Homo sapiens, canonical junction qPCR, read-out: SMN2 IC50 (decrease in CJ mRNA levels). Format: cell-based, human. The gist of the method: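 A673 or K562 cells treated with compound; canonical exon-exon junction mRNA quantified by cDNA synthesis and RT-qPCR with junction-spanning primer/probe, normalized to GAPDH, GUSB or PPIA and DMSO (2^(−ΔΔCt)). Percent response from set ΔCt assay windows fitted to 4-parameter logistic; IC50 for CJ decrease.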
For orientation: Quantitative PCR measures a nucleic acid by following its amplification.

The test system of data set [2] is HiBiT-tagged MYB protein. As to the kind of experiment: HiBiT protein abundance assay, MYB (K562 HiBiT knock-in cells). Format: cell-based, human. The conditions noted are these: 24 hours. The procedure, abridged:
(§1)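 K562 cells with endogenous HiBiT knock-in tag, 10-point 3-fold dilutions (top 10 μM final, ≤0.25% DMSO), 24 h at 37 °C. Lytic Nano-Glo HiBiT luminescence, normalized to DMSO and unmodified K562 baselines; IC50 is concentration giving 50% protein abundance from four-parameter fit.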
On the technique in general: HiBiT is a short tag that completes a luciferase, so light tracks the accessible tagged protein.

In data set [3] the test system is HiBiT-tagged HTT protein. As to the kind of experiment: HiBiT protein abundance assay, HTT (K562 HiBiT knock-in cells). The data set is classed as cell-based, human. The conditions noted are these: 24 hours. The gist of the method: as §1
For data set [4], the system named is Target C. As to the kind of experiment: HiBiT protein abundance assay, Target C (K562 HiBiT knock-in cells). Format: cell-based, human. The conditions noted are these: 24 hours. The procedure, abridged: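 K562 knock-in cells (10000/well, IMDM+1% FBS) treated 24 h at 37 °C with 10-point 3-fold dilutions, top final 10 μM, DMSO ≤0.25%. HiBiT lytic luminescence read; response normalized to unmodified K562 and DMSO-treated controls. IC50 interpolated at 50% abundance by four-parameter logistic fit.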

Data set [5] concerns K562 cells. As to the kind of experiment: Cell Titer Glo 2.0 cell viability assay in K562 cells. Particulars: 72 hours. (In general: Cellular ATP, detected with luciferase, serves as a proxy for viable cell number.)

Where a name gives a salt, the structure may show the parent alone. Where only a bound is given, the exact number is not on record here.

The term IC50 denotes the concentration needed to halve the response being measured. With `CCc1cc(NC(=O)c2ccc(N3CCNCC3)c3ccnnc23)nn2cc(C)nc12` [Compound 168, N-{8-ethyl-2-methylimidazo[1,2-b]pyridazin-6-yl}-5-(piperazin-1-yl)cinnoline-8-carboxamide trifluoroacetic acid salt], the IC50 is 100 to 1000 nM in data set [1], 1000 to 10000 nM in data set [2], above 10000 nM in data set [3] and above 10 µM in data set [4]. In addition, in data set [5], the Viability result was “C (C represents 1000-9999 nM)”.
The like results for `COc1ccc2c(N3CCNCC3)ccc(C(=O)Nc3cc(F)c4nc(C)cn4c3)c2n1` [Compound 169, N-{8-fluoro-2-methylimidazo[1,2-a]pyridin-6-yl}-2-methoxy-5-(piperazin-1-yl)quinoline-8-carboxamide] were, in that order, below 100 nM, below 100 nM, 100 to 1000 nM, 1 to 10 µM and “A (A represents <100 nM)”.
With `Cc1cn2cc(NC(=O)c3ccc(N4C[C@@H](C)N[C@@H](C)C4)c4ccnnc34)nc(C)c2n1` [Compound 172, N-{2,8-dimethylimidazo[1,2-a]pyrazin-6-yl}-5-[(3R,5S)-3,5-dimethylpiperazin-1-yl]cinnoline-8-carboxamide], the IC50 in data set [1] is below 100 nM; in data set [2], below 100 nM; in data set [3], above 10000 nM; in data set [4], above 10 µM. Also, the Viability result in data set [5] is recorded as “B (B represents 100-1000 nM)”.
For `COCCOc1ccc2c(N3CCNCC3)ccc(C(=O)Nc3cc(F)c4nc(C)cn4c3)c2n1` [Compound 173, N-{8-fluoro-2-methylimidazo[1,2-a]pyridin-6-yl}-2-(2-methoxyethoxy)-5-(piperazin-1-yl)quinoline-8-carboxamide], the IC50 in data set [1] was below 100 nM; in data set [2], below 100 nM; in data set [3], above 10000 nM; in data set [4], above 10 µM. In addition, the Viability result in data set [5] is given as “B (B represents 100-1000 nM)”.
As to `COc1cc(NC(=O)c2ccc(N3CCNCC3)c3ccnnc23)cn2cc(C)nc12` [Compound 176, N-{8-methoxy-2-methylimidazo[1,2-a]pyridin-6-yl}-5-(piperazin-1-yl)cinnoline-8-carboxamide trifluoroacetate], the IC50 in data set [1] is below 100 nM; in data set [2] it was 100 to 1000 nM; in data set [3] it was 1000 to 10000 nM; in data set [4] it was 1 to 10 µM. For the same compound, in data set [5], the Viability result was “B (B represents 100-1000 nM)”.
The like results for `Cc1cn2cc(NC(=O)c3ccc(N4CCNCC4)c4ccnnc34)[nH]c(=O)c2n1` [Compound 177, N-{2-methyl-8-oxo-7H-imidazo[1,2-a]pyrazin-6-yl}-5-(piperazin-1-yl)cinnoline-8-carboxamide trifluoroacetic acid salt] were, in that order, 100 to 1000 nM, 100 to 1000 nM, 100 to 1000 nM, 0.1 to 1 µM and “B (B represents 100-1000 nM)”.
On to `Cc1nc(NC(=O)c2ccc(N3CCNCC3)c3ccnnc23)cc2cn(C)nc12` [Compound 178, N-{2,7-dimethylpyrazolo[3,4-c]pyridin-5-yl}-5-(piperazin-1-yl)cinnoline-8-carboxamide], for which the IC50 in data set [1] was below 100 nM; in data set [2], 100 to 1000 nM; in data set [3] it was 1000 to 10000 nM; in data set [4] it was above 10 µM. Further, the Viability entry in data set [5] is “C (C represents 1000-9999 nM)”.
The corresponding values for `COc1nc(NC(=O)c2ccc(N3CCNCC3)c3ccnnc23)cn2cc(C)nc12` [Compound 179, N-{8-methoxy-2-methylimidazo[1,2-a]pyrazin-6-yl}-5-(piperazin-1-yl)cinnoline-8-carboxamide] are below 100 nM, below 100 nM, 1000 to 10000 nM, above 10 µM and “B (B represents 100-1000 nM)”.
The like results for `Cc1c(O)c(NC(=O)c2ccc(N3CCNCC3)c3ccnnc23)cc2cn(C)nc12` [Compound 181, N-(6-hydroxy-2,7-dimethylindazol-5-yl)-5-(piperazin-1-yl)cinnoline-8-carboxamide] were, in that order, below 100 nM, 1000 to 10000 nM, above 10000 nM, above 10 µM and “C (C represents 1000-9999 nM)”.
The like results for `Cc1cn2cc(NC(=O)c3ccc(N4CCNCC4)c4ccnnc34)cc(C(C)O)c2n1` (stereo not drawn) [Compound 182, N-[8-(1-hydroxyethyl)-2-methylimidazo[1,2-a]pyridin-6-yl]-5-(piperazin-1-yl)cinnoline-8-carboxamide trifluoroacetate] were, in that order, 1000 to 10000 nM, above 10000 nM, above 10000 nM, above 10 µM and “D (D represents greater than 10 μM in K562 cells)”.
As for `COc1cc2c(N3CCNCC3)ccc(C(=O)Nc3cc(F)c4nc(C)cn4c3)c2nn1` [Compound 183, N-{8-fluoro-2-methylimidazo[1,2-a]pyridin-6-yl}-3-methoxy-5-(piperazin-1-yl)cinnoline-8-carboxamide], the IC50 in data set [1] is below 100 nM; in data set [2], below 100 nM; in data set [3] it was 100 to 1000 nM; in data set [4] it was 1 to 10 µM. Further, the Viability entry in data set [5] is reported as “B (B represents 100-1000 nM)”.
`Cc1cn2cc(NC(=O)c3ccc(N4CCN[C@@H](C)C4)c4nccnc34)cc(F)c2n1` [Compound 187, N-{8-fluoro-2-methylimidazo[1,2-a]pyridin-6-yl}-8-(3-methylpiperazin-1-yl) quinoxaline-5-carboxamide]: the IC50 in data set [1] was below 100 nM; in data set [2], below 100 nM; in data set [3], 1000 to 10000 nM; in data set [4], 1 to 10 µM. Also, in data set [5], the Viability entry was “B (B represents 100-1000 nM)”.
Take `Cc1cn2cc(NC(=O)c3ccc(N4CCC5(CCN5)CC4)c4nccnc34)cc(F)c2n1` [Compound 189, 8-{1,7-diazaspiro[3.5]nonan-7-yl}-N-{8-fluoro-2-methylimidazo[1,2-a]pyridin-6-yl}quinoxaline-5-carboxamide]: the IC50 in data set [1] is below 100 nM; in data set [2], below 100 nM; in data set [3], 100 to 1000 nM; in data set [4], 1 to 10 µM. The Viability result in data set [5] is given as “B (B represents 100-1000 nM)”.
Consider `CNC1CCN(c2ccc(C(=O)Nc3cc(F)c4nc(C)cn4c3)c3nccnc23)C1` (stereo not drawn) [Compound 190, N-{8-fluoro-2-methylimidazo[1,2-a]pyridin-6-yl}-8-[3-(methylamino)pyrrolidin-1-yl]quinoxaline-5-carboxamide], for which the IC50 was below 100 nM in data set [1], 100 to 1000 nM in data set [2], 1000 to 10000 nM in data set [3] and 1 to 10 µM in data set [4]. Moreover, the Viability result in data set [5] was “A (A represents <100 nM)”.
The like results for `CCNC1CCN(c2ccc(C(=O)Nc3cc(F)c4nc(C)cn4c3)c3nccnc23)CC1` [Compound 191, 8-[4-(ethylamino)piperidin-1-yl]-N-{8-fluoro-2-methylimidazo[1,2-a]pyridin-6-yl}quinoxaline-5-carboxamide] were, in that order, below 100 nM, below 100 nM, 100 to 1000 nM, 1 to 10 µM and “B (B represents 100-1000 nM)”.

The values above are taken from US20240409536A1, “COMPOUNDS AND METHODS FOR MODULATING SPLICING” (REMIX THERAPEUTICS INC., priority 2021, published 2024).
